Test results: ChEMBL document CHEMBL1201862, “PubChem BioAssay data set” (2004)
Active and inactive are the calls of the source.

Assays:
[1] = target: Fructose-bisphosphate aldolase (Mycobacterium tuberculosis, UniProt P9WQA3); assay: Fluorescence-based biochemical high throughput dose response assay for inhibitors of the fructose-bisphosphate aldolase (FBA) of M. tuberculosis.; assay type: functional
Vero = assay: viability loss in Vero cells – cell-based, plate reader, cherry-pick samples, cytotoxicity control, dose response (AID 687020); assay type: functional; conditions: Chlorocebus sabaeus
Major prion protein = Major prion protein (Homo sapiens, UniProt P04156); assay type: functional, cell-based
[2] = target: 1-phosphatidylinositol 4,5-bisphosphate phosphodiesterase gamma-1 (Homo sapiens, UniProt P19174); assay: Counterscreen for inhibitors of phospholipase C isozymes (PLC-B3): Fluorescence-based biochemical high throughput dose response assay to identify inhibitors of phospholipase C isozymes (PLC-gamma1).
[3] = target: 1-phosphatidylinositol 4,5-bisphosphate phosphodiesterase beta-3 (Homo sapiens, UniProt Q01970); assay: Fluorescence-based biochemical high throughput dose response assay to identify inhibitors of phospholipase C isozymes (PLC-B3).
[4] = blockers of HIV-1 envelope-mediated cell-cell fusion – cherry-pick, dose response (AID 652057); assay type: functional, cell-based
[5] = blockers of HIV-1 ZM109 envelope-driven cell-cell fusion – HeLa effector, CEM target cells, luciferase, cherry-pick, dose response (AID 652058); assay type: functional, cell-based;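 note: luciferase signal from HIV-1 Env mediated cell-cell fusion of effector and target cells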
[6] = off-target signal loss in HeLa-CEM21 co-culture – HeLa F-luc CTL cells, cherry-picked, counter-screen for HIV-1 Env fusion inhibitor project, dose response (AID 652040); assay type: functional, cell-based;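 note: potency for signal decrease marking cytotoxic or nonspecific inhibition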
[7] = HIV-1 AD8 envelope cell-cell fusion blockers – cherry-pick, dose response (AID 652062); assay type: functional, cell-based;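 note: luciferase signal from cell-cell fusion driven by HIV-1 clade B AD8 Env; potency is for inhibitors of fusion seen as a drop in luminescence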
[8] = target: T1, RNA-binding protein pos-1 (Caenorhabditis elegans, UniProt G5EF15); assay: disruptors of C. elegans POS-1 RNA interaction – biochemical, fluorescence polarization, dose response (AID 1964);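 note: purified POS-1 fused to maltose binding protein made in E. coli; potency of compounds blocking POS-1 binding to fluorescent RNA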
T1 sequence (G5EF15 whole entry): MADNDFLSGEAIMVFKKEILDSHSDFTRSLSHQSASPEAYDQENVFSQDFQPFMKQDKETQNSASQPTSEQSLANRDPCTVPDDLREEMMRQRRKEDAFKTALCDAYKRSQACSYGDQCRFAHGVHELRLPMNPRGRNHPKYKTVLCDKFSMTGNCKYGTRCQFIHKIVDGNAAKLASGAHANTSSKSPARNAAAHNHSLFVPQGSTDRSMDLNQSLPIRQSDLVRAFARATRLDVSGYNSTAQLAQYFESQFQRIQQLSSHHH

[9] = target: T2, Zinc finger protein mex-5 (Caenorhabditis elegans, UniProt Q9XUB2); assay: potency of MEX-5 RNA-binding blockers – biochemical, C. elegans, fluorescence polarization, dose response (AID 1960)
T2 sequence (Q9XUB2 whole entry): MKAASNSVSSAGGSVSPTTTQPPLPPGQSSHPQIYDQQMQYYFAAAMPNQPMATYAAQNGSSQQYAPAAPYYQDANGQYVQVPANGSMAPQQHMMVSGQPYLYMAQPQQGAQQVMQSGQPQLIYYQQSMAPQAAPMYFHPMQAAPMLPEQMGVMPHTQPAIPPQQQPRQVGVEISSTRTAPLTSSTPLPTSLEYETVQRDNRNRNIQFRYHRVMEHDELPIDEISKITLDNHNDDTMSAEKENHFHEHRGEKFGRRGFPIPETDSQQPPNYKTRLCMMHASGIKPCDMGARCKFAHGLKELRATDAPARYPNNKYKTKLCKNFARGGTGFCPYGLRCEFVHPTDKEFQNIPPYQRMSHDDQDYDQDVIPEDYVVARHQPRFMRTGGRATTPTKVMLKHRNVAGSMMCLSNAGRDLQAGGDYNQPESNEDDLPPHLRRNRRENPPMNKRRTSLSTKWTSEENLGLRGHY

Kallikrein-7 = Kallikrein-7 (Homo sapiens, UniProt P49862); assay: Fluorescence Intensity-based biochemical primary high throughput dose response assay to identify activators of kallikrein-7 (K7) zymogen.
[10] = optical artefact potency, substrate without enzyme – biochemical, fluorescence intensity, triplicate, artefact control for kallikrein-7 zymogen activator project, dose response (AID 720493)
[11] = target: T3, Hepatocyte nuclear factor 4-alpha (Homo sapiens, UniProt P41235); assay type: functional, cell-based;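 note: biochemical luminescence-based dose-response counterscreen measuring inhibition of HNF4 dimerization, run alongside a screen for blockers of ABHD5–perilipin-5 interaction; split luciferase complementation of HNF4 fusion proteins in cell lysate measuring dimerization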
T3 sequence (P41235 whole entry): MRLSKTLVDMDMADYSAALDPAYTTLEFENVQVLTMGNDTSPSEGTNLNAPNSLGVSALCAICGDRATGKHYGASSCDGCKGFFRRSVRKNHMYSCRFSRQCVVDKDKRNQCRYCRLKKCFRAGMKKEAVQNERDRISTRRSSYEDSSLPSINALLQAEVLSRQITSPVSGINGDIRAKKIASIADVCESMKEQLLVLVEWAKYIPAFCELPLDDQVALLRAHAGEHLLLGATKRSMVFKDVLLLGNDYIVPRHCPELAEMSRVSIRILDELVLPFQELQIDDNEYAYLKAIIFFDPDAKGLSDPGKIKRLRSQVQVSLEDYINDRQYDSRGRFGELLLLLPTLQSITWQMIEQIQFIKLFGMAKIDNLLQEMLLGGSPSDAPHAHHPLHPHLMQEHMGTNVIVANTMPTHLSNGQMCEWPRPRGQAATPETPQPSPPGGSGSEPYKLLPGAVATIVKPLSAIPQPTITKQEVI

Paired box protein Pax-8 = Paired box protein Pax-8 (Homo sapiens, UniProt Q06710); assay: PAX8 transcriptional activity inhibition in RMG-I – RMG-I cells, luciferase, cherry-pick, dose response (AID 687027); assay type: functional, cell-based;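 note: luciferase reporter driven by Pax8 target thyroperoxidase promoter measured by SteadyGlo luminescence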
[12] = reduced cellular PGC1a acetyl-lysine signal – cell-based, cherry-picked samples, dose response (AID 720514); assay type: functional;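 note: potency may reflect raised or lowered acetylation signal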
[13] = general cell-killing toxicity readout – plate reader, dry powder samples, cytotoxicity control for PAX8 inhibitor project, dose response (AID 743021); assay type: functional, cell-based
[14] = rescue of ΔF508 CFTR function, airway epithelium – human bronchial epithelial cells, plate reader, cherry-pick, two tests, dose response (AID 743267); assay type: functional, cell-based

SMILES: CCN(CC)CCCNC(=O)CCC(=O)Nc1ccc2nc(N3CCC(C)CC3)cc(C)c2c1
- IC50 [1]: > 0.37 µM (active)

SMILES: CC1CCOC(c2coc3ccccc3c2=O)O1 (centres undefined)
- AC50 (Vero): 24.2 µM (active)

SMILES: CC(=O)Nc1ccc2nc(C)c(CC=C(Cl)Cl)c(O)c2c1
- IC50 (Major prion protein): 10.2 µM (inactive)
- IC50 (cells): > 138 µM (inactive)

SMILES: O=C(CCNc1cc(Cl)cc(Cl)c1)c1cccs1
- IC50 [2]: > 123 µM (inactive)
- IC50 [3]: > 123 µM (inactive)

SMILES: CCC(NS(=O)(=O)c1c(C)nc(O)nc1O)C12CC3CC(CC(C3)C1)C2 (centres undefined)
- AC50 [4]: 7.48 µM (active)
- AC50 [5]: 7.79 µM (active)
- AC50 [6]: 11.8 µM (active)
- AC50 [7]: 7.16 µM (active)

SMILES: Cc1ccc(/C=C2\Oc3c(ccc(O)c3CN3CCN(C)CC3)C2=O)cc1
- EC50 [8]: 43.7 µM (active)
- EC50 [9]: 153 µM (active)
- EC50 (Kallikrein-7): 12.5 µM (inactive)
- EC50 [10]: > 7.73 µM (active)

SMILES: C#CCN(C[C@@H]1[C@@H](OC(=O)NCCCCCC)[C@@H](OC(=O)NCCCCCC)Cn2c(=O)ccc(=O)n21)S(=O)(=O)c1ccc(C)cc1
- IC50 [11]: 34.7 µM (inactive)
- AC50 (Paired box protein Pax-8): 4.18 µM (active)
- AC50 [12]: 4.88 µM (active)
- AC50 [13]: 38.3 µM (active)

SMILES: COc1ccccc1NS(=O)(=O)c1cc(NN=C(C(C)=O)C(=O)Nc2ccc(Cl)cc2)ccc1C
- AC50 [14]: 36.6 µM (active)
